Reference: the CheMixHub ionic liquid set

Experiment: xn = mol fraction of the nth substance listed
Settings: 100 kPa

C[C@H](N)C(=O)[O-].C[N+](C)(C)CCO + CCO
Settings | viscosity [mPa·s]
287.88 K, x1 = 1 | 4500
287.97 K, x1 = 0.6071 | 550
288 K, x1 = 0.2012 | 17.5
288.02 K, x1 = 0.1013 | 5.6
288.04 K, x1 = 0.8027 | 1750
288.05 K, x1 = 0.3782 | 89
288.05 K, x1 = 0.5527 | 359
288.05 K, x1 = 0.7056 | 1079
288.09 K, x1 = 0.2903 | 42
288.1 K, x1 = 1 | 5100
288.12 K, x1 = 0.894 | 2875
289.23 K, x1 = 0.6071 | 520
289.25 K, x1 = 0.3782 | 88
289.26 K, x1 = 0.2012 | 17
289.26 K, x1 = 0.8027 | 1625
289.28 K, x1 = 0.1013 | 5.3
289.28 K, x1 = 0.5527 | 339
289.29 K, x1 = 0.7056 | 990
289.31 K, x1 = 0.2903 | 40.6
289.34 K, x1 = 0.894 | 2592
289.96 K, x1 = 1 | 3700
290.21 K, x1 = 1 | 4300
290.48 K, x1 = 0.6071 | 470
290.5 K, x1 = 0.3782 | 85
290.51 K, x1 = 0.2012 | 16.4
290.51 K, x1 = 0.8027 | 1464
290.52 K, x1 = 0.1013 | 5.1
290.52 K, x1 = 0.5527 | 315
290.52 K, x1 = 0.7056 | 900
290.53 K, x1 = 0.2903 | 39.2
290.55 K, x1 = 0.894 | 2319
291.71 K, x1 = 0.6071 | 430
291.72 K, x1 = 0.2012 | 15.7
291.72 K, x1 = 0.3782 | 80
291.73 K, x1 = 0.1013 | 4.9
291.73 K, x1 = 0.2903 | 37.6
291.73 K, x1 = 0.5527 | 291
291.73 K, x1 = 0.7056 | 820
291.73 K, x1 = 0.8027 | 1311
291.74 K, x1 = 0.894 | 2072
292.02 K, x1 = 1 | 3052
292.32 K, x1 = 1 | 3520
292.91 K, x1 = 0.1013 | 4.7
292.91 K, x1 = 0.3782 | 76
292.91 K, x1 = 0.6071 | 394
292.92 K, x1 = 0.2012 | 15
292.92 K, x1 = 0.2903 | 36
292.92 K, x1 = 0.5527 | 268
292.92 K, x1 = 0.7056 | 740
292.92 K, x1 = 0.8027 | 1180
292.92 K, x1 = 0.894 | 1858
294.08 K, x1 = 1 | 2544
294.09 K, x1 = 0.1013 | 4.5
294.09 K, x1 = 0.2012 | 14.3
294.09 K, x1 = 0.2903 | 34.4
294.09 K, x1 = 0.6071 | 360
294.1 K, x1 = 0.3782 | 73
294.1 K, x1 = 0.5527 | 248
294.1 K, x1 = 0.7056 | 670
294.1 K, x1 = 0.8027 | 1065
294.1 K, x1 = 0.894 | 1669
294.41 K, x1 = 1 | 2896
295.27 K, x1 = 0.1013 | 4.4
295.27 K, x1 = 0.2012 | 13.8
295.27 K, x1 = 0.2903 | 33.1
295.27 K, x1 = 0.3782 | 70
295.27 K, x1 = 0.5527 | 231
295.27 K, x1 = 0.6071 | 333
295.27 K, x1 = 0.7056 | 620
295.27 K, x1 = 0.8027 | 970
295.27 K, x1 = 0.894 | 1510
296.14 K, x1 = 1 | 2140
296.45 K, x1 = 0.1013 | 4.2
296.45 K, x1 = 0.2012 | 13.2
296.45 K, x1 = 0.2903 | 31.7
296.45 K, x1 = 0.3782 | 66
296.45 K, x1 = 0.5527 | 216
296.45 K, x1 = 0.6071 | 308
296.45 K, x1 = 0.7056 | 560
296.45 K, x1 = 0.8027 | 880
296.45 K, x1 = 0.894 | 1365
296.48 K, x1 = 1 | 2402
297.63 K, x1 = 0.1013 | 3.97
297.63 K, x1 = 0.2012 | 12.6
297.63 K, x1 = 0.2903 | 30.2
297.63 K, x1 = 0.3782 | 63
297.63 K, x1 = 0.5527 | 200
297.63 K, x1 = 0.6071 | 283
297.63 K, x1 = 0.7056 | 520
297.63 K, x1 = 0.8027 | 800
297.63 K, x1 = 0.894 | 1234
298.2 K, x1 = 1 | 1806
298.54 K, x1 = 1 | 2000
298.81 K, x1 = 0.1013 | 3.81
298.81 K, x1 = 0.2012 | 12.1
298.81 K, x1 = 0.2903 | 29.1
298.81 K, x1 = 0.3782 | 61
298.81 K, x1 = 0.5527 | 188
298.81 K, x1 = 0.6071 | 263
298.81 K, x1 = 0.7056 | 480
